Laboratory results: patent US8362256B2, “Salts of N-[4-(1-cyanocyclopentyl)phenyl]-2-(4-pyridylmethyl)amino-3-pyridinecarboxamide” (Jiangsu Hengrui Medicine Co. Ltd., priority 2008, dated 2013)
“And” between values parts separate entries of the source, which are not always exact repeats. Equal entries are not always repeated. Where two headings read alike, the source gives them in different places.

Key:
[1] = Solubility; assay type: physicochemical
[2] = system: kinases Ret, VEGFR-1, PDGFR-β, c-kit, cSRC; conditions: cited from earlier work
[3] = Stability in different conditions, content by HPLC; assay type: physicochemical; conditions: HPLC; initial purity 99.6%
[4] = system: non-small cell lung cancer A549; conditions: cited from earlier work
[5] = system: colon cancer Ls174t; conditions: cited from earlier work
[6] = target: VEGFR-2 (Homo sapiens, UniProt P35968); conditions: enzyme level tests in different laboratories; cited from earlier work
VEGFR-2, sequence (P35968 20-1356, species assumed): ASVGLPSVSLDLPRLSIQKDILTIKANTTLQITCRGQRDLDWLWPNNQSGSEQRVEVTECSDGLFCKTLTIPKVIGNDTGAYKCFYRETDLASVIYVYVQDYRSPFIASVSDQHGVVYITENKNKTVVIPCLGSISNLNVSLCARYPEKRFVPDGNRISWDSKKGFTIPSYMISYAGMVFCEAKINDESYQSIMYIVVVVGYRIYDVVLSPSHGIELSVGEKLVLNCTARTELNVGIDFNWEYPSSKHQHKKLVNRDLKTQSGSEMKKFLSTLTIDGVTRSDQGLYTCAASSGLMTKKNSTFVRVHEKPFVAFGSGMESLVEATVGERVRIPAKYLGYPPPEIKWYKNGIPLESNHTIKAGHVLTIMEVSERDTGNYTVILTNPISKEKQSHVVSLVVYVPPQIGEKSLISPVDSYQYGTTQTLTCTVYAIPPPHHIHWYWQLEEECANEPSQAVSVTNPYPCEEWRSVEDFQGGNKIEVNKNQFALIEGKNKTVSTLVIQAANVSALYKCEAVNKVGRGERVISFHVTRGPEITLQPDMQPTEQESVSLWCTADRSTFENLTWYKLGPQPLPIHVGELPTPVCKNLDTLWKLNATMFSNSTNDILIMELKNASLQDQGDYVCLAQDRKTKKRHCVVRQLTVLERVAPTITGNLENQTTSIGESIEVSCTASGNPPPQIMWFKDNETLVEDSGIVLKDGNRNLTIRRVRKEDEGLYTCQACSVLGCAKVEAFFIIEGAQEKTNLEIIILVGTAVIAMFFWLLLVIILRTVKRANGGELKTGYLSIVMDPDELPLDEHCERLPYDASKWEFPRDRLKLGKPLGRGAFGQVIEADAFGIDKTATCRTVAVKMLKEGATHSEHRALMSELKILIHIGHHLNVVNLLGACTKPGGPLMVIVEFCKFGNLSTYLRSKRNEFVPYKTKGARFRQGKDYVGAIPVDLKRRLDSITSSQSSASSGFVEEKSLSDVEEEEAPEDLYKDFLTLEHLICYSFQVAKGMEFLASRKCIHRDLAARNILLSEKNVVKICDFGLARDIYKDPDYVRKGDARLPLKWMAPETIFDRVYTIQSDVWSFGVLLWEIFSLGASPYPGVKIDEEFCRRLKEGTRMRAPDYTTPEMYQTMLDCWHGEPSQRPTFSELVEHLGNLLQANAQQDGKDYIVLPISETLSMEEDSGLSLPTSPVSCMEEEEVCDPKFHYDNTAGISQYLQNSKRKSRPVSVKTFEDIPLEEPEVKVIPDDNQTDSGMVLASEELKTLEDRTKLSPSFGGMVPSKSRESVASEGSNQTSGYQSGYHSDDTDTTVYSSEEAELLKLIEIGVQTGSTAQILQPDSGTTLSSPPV

[7] = Bioavailability of compound A by oral administration (Example 4); assay type: in vivo, Sprague-Dawley (SD) rats; conditions: SD rats
Description: I. Analysis Condition of LC/MS/MS
Analysis Condition of Liquid Chromatography
Column temperature: 25° C.;
A: 25%+B: 75%, constant gradient elution;
Analysis time: 3 minutes.
Only after one week adaption, the rats could be used to conduct pharmacokinetics animal experiment.
The blood samples were collected into test tubes containing heparin added in advance, and then centrifuged to produce plasma. […] Euthanasia was performed on used rats with CO2 gas.

[8] = system: human colon cancer Ls174t; assay: Efficacy on human colon cancer Ls174t transplanted in nude mice; conditions: for Weight after Removing Tumor, d0 / TV x ± SD, d0: d0 baseline; for RTV x ± SD / T/C / TV x ± SD, dn: dn 14 days; for Weight after Removing Tumor, dn: dn 14 days after first administration
Description: BALB/cA-nude mice, ♀, 5-6 weeks-old, available from Shanghai Slaccas experimental animals limited liability company. […] Rearing environment: SPF grade.
(§1) After one week adaption, the experimental animals were subcutaneously inoculated with human colon cancer Ls174t tumor tissues. When the tumors grew to 100-300 mm^3, the animals were randomly divided into several groups in day 0 (d0). […] The volumes of tumors and the weights of mice were measured 2-3 times every week, the data of which were recorded. The equation for the calculation of volume of tumors (V) is: V=½×a×b^2 wherein a and b represent length and width, respectively.

[9] = target: c-Src (Homo sapiens, UniProt P12931); assay: ELISA tyrosine kinase inhibition; assay type: biochemical; conditions: concentration increased to 10^4 nM
c-Src, sequence (P12931 whole entry, species assumed): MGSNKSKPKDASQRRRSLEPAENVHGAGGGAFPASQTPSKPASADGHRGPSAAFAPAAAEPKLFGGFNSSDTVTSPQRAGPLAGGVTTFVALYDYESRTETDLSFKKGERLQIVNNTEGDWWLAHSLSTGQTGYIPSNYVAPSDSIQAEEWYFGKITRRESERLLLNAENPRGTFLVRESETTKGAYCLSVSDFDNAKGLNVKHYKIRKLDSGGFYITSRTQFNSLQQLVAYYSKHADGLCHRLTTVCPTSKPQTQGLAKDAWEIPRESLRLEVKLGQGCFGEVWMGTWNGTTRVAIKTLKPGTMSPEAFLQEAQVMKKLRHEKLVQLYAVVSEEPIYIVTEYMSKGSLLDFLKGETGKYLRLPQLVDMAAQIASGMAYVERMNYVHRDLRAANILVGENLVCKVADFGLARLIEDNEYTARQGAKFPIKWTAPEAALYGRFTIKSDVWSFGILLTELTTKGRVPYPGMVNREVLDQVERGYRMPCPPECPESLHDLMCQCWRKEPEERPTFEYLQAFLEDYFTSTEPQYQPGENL
Description: Phosphorylation of substrate was determined with monoclonal antibody of anti-phosphorylation tyrosine (PY99). Goat anti-mouse IgG marked with HRP was then added, and the degree of phosphorylation of substrate was determined with OPD coloration. At the same time, the control group without tyrosine kinase and control wells of corresponding DMSO concentration were set up. 2 M of H2SO4 was added in 50 μl/well to terminate the reaction. Data was read with adjustable wavelength micro plate enzyme-labeling instrument VERSAmax (Sunnyvale, Calif., U.S.A.), followed by visualization reaction, OD490 nm value was then observed.
Relative inhibition rate of drugs on tyrosine kinase protein was determined.

[10] = 75 mg/kg; initial tumor volume 25-100 mm3; 28 days or more; cited from earlier work
[11] = system: human colon cancer HT-29; assay: Efficacy on human colon cancer HT-29 transplanted in nude mice
Description: BALB/cA-nude mice, ♀, 5-6 weeks-old, purchased from Shanghai Slaccas experimental animals limited liability company. […] Rearing environment: SPF grade.
as §1, with “HT-29” for “Ls174t”, “groups.” for “groups in day 0 (d0).”, “Volume” for “The volumes”, “weight” for “the weights”, “a,” for “a and”

[12] = oral 20 mg/kg, individual rats, 20 mg/kg
[13] = 50 mg/kg p.o. once daily d0-d13
[14] = 100 mg/kg p.o. once daily d0-d13
[15] = 200 mg/kg p.o. once daily d0-d13
[16] = 200 mg/kg p.o. once daily d0-d20, dn 21 days

N#CC1(c2ccc(NC(=O)c3cccnc3NCc3ccncc3)cc2)CCCC1 [Compound A, N-[4-(1-cyanocyclopentyl)phenyl]-2-(4-pyridylmethyl)amino-3-pyridine carboxamide]
Solubility in water [1]: Insoluble | inhibition activity on kinases Ret, VEGFR-1, PDGFR-β, c-kit, cSRC [2]: certain selective inhibition activity | content after 6 Months Under Light [3]: 95.2% | content after 6 Months at 60° C. [3]: 92.2% | content after 6 Months at Room Temperature [3]: 95.7% | efficacy on non-small cell lung cancer A549 transplanted in nude mice ([4]; compared with PTK787): distinctly better than PTK787 | maximum efficacy on A549 ([4]; compared with ZD6474 at a customary dose): equivalent to ZD6474 | efficacy in combination with oxaliplatin ([5]; combination with oxaliplatin): improved | toxicity in combination with oxaliplatin ([5]; mouse, in vivo): not increased | efficacy on colon cancer Ls174t transplanted in nude mice ([5]; used alone, compared with PTK787): distinctly better than PTK787 | IC50 [6]: ~1 nM | CL, Mean ± SD ([7]; oral 20 mg/kg, 3 rats): 1520 ± 393 mL/min/kg | Kel, Mean ± SD ([7]; oral 20 mg/kg, 3 rats): 0.426 ± 0.169 h⁻¹ | Vd, Mean ± SD ([7]; oral 20 mg/kg, 3 rats): 300 ± 69.4 L/kg | AUC0→8h [7, 12]: 295 ng·h/mL and 211 ng·h/mL | CL [7, 12]: 1920 mL/min/kg and 1120 mL/min/kg and 1540 mL/min/kg | Cmax [7, 12]: 68.9 ng/mL and 79.2 ng/mL | Kel [7, 12]: 0.325 h⁻¹ and 0.622 h⁻¹ and 0.332 h⁻¹ | MRT [7, 12]: 3.38 h and 3.32 h | T1/2 [7, 12]: 1.12 h and 2.09 h | Tmax [7, 12]: 1 h | Vd [7, 12]: 366 L/kg and 228 L/kg and 308 L/kg | AUC(0-t) ([7]; male, Sprague-Dawley, rat, plasma, po, 20 mg/kg, 3 rats, read-out: AUC0→8h, Mean ± SD): 226 ± 63 ng·h/mL | Cmax ([7]; male, Sprague-Dawley, rat, plasma, po, 20 mg/kg, 3 rats, read-out: Cmax, Mean ± SD): 69.6 ± 9.2 ng/mL | MRT ([7]; male, Sprague-Dawley, rat, plasma, po, 20 mg/kg, 3 rats, read-out: MRT, Mean ± SD): 3.3 ± 0.09 h | half-life ([7]; male, Sprague-Dawley, rat, plasma, po, 20 mg/kg, 3 rats, read-out: T1/2, Mean ± SD (converted)): 1.78 ± 0.57 h | Tmax ([7]; male, Sprague-Dawley, rat, plasma, po, 20 mg/kg, 3 rats, read-out: Tmax, Mean ± SD): 1.33 ± 0.29 h | AUC(0-t) ([7]; male, Sprague-Dawley, rat, plasma, po, 20 mg/kg, individual rats, read-out: AUC0→8h): 172 ng·h/mL | Cmax ([7]; male, Sprague-Dawley, rat, plasma, po, 20 mg/kg, individual rats, read-out: Cmax): 60.8 ng/mL | MRT ([7]; male, Sprague-Dawley, rat, plasma, po, 20 mg/kg, individual rats, read-out: MRT): 3.2 h | half-life ([7]; male, Sprague-Dawley, rat, plasma, po, 20 mg/kg, individual rats, read-out: T1/2 (converted)): 2.13 h | Tmax ([7]; male, Sprague-Dawley, rat, plasma, po, 20 mg/kg, individual rats, read-out: Tmax): 1.5 h

N#CC1(c2ccc(NC(=O)c3cccnc3NCc3ccncc3)cc2)CCCC1.O=C(O)CCC(=O)O [Succinate of compound A]
content after 6 Months Under Light [3]: 94.2% | content after 6 Months at 60° C. [3]: 93.8% | content after 6 Months at Room Temperature [3]: 96.2%

Clc1ccc(Nc2nnc(Cc3ccncc3)c3ccccc23)cc1 [PTK787, reference compound]
Weight after Removing Tumor, d0 [8, 13]: 19.5 g | RTV x ± SD [8, 13]: 9.4 ± 5.9 | T/C [8, 13]: 76.4% | TV x ± SD, dn [8, 13]: 1425 ± 613 | Weight after Removing Tumor, dn [8, 13]: 17.6 g | TV x ± SD, d0 ([8]; 50 mg/kg p.o.): 171 ± 39 | Weight after Removing Tumor, d0 [8, 14]: 19.3 g | RTV x ± SD [8, 14]: 8.8 ± 3.5 | T/C [8, 14]: 71.5% | TV x ± SD, dn [8, 14]: 1538 ± 402 | Weight after Removing Tumor, dn [8, 14]: 17.3 g | TV x ± SD, d0 ([8]; 100 mg/kg p.o.): 175 ± 43 | Weight after Removing Tumor, d0 [8, 15]: 18.8 g | RTV x ± SD [8, 15]: 7.4 ± 2.0 | TV x ± SD, dn [8, 15]: 1076 ± 198 | Weight after Removing Tumor, dn [8, 15]: 17.1 g | TV x ± SD, d0 ([8]; 200 mg/kg p.o.): 150 ± 25 | efficacy at 400 mg/kg ([8]; 400 mg/kg): did not increase significantly | ED50 ([8]; Mus musculus, LS174T, read-out: ED50 on colon cancer Ls174t): 459 mg/kg | tolerance at 400 mg/kg ([8]; mouse, in vivo): could be tolerated by mice | inhibition on c-Src [9]: no inhibition | best T/C % [10]: 40% | Weight after Removing Tumor, d0 ([11]; 200 mg/kg p.o. once daily d0-d20, d0 baseline): 15.9 g | RTV x ± SD [11, 16]: 4.9 ± 1.36 | TV x ± SD, dn [11, 16]: 1185 ± 143 | Weight after Removing Tumor, dn ([11]; 200 mg/kg p.o. once daily d0-d20, dn 21 days after first administration): 13.9 g | TV x ± SD, d0 ([11]; 200 mg/kg p.o., d0 baseline): 252 ± 43 | tolerance ([11]; mouse, in vivo, po): well tolerated
